Data taken from US20250282771A1, “TETRAHYDROISOQUINOLINE HETEROBIFUNCTIONAL BCL-XL DEGRADERS” (Treeline Biosciences, Inc., priority 2022, published 2025).

Biological target: T1, N-terminal HiBiT tagged BCL-XL (Homo sapiens, UniProt Q07817)
T1 construct: expressed in transfected cells; host or cells: HT-1080 (ATCC CCL-121) cells stably transduced with lentivirus pLV-UBC-N-HiBiT-BCL-XL-PGK-puro
Assay: HiBiT based degradation assay
Format: cell-based
Conditions: HT1080 cells expressing N-terminal HiBiT tagged BCL-XL, BCL-XL level normalized with DMSO control
Text: Human BCL-XL protein coding open reading frame fused with N-terminal HiBiT coding sequence was synthesized from Integrated DNA Technologies (IDT). Next, N-HiBiT-BCL-XL sequence was cloned into pLV-UBC-PGK-Puro, a lentivirus plasmid purchased from Vectorbuilder, to generate pLV-UBC-N-HiBiT-BCL-XL-PGK-puro. Lentiviral particles were generated from Lenti-X™ 293T cells (Clontech) by co-transfection of pLV-UBC-N-HiBiT-BCL-XL-PGK-puro plasmids and lentiviral packaging plasmid mix (Cellecta). HT-1080 [HT1080](ATCC CCL-121) cells were infected with the lentivirus, and HT1080 cells stably integrated with the lentiviral vectors were established by incubation with […] puromycin (Thermofisher).
HT1080 cells expressing N-terminal HiBiT tagged BCL-XL were dispensed into a 384-well plate pre-spotted with compounds at varying concentrations. Three thousand cells were seeded into each well in 40 μL of RPMI 1640 media. […] After incubation, luminescence was read on a PHERAstar FSX Plate Reader (BMG). BCL-XL degradation at each indicated concentration was normalized with the DMSO control. The BCL-XL degradation curves were plotted using a four-parameter logistic model. For compounds displaying hook effects, the curve fitting was performed using the bottom point of the hook curves (i.e., the point of Ymin) as the bottom plateau to calculate EC50.

T1 sequence (Q07817 whole entry): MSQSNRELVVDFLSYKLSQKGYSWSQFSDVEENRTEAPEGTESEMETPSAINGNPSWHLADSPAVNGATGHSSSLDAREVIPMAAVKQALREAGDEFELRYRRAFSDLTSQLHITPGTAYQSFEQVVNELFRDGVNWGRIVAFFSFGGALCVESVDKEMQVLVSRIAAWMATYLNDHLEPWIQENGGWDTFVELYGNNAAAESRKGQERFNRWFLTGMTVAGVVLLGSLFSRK

Structure (SMILES) | Ymin (6 h) | Ymin (24 h)
Cc1c(OCCCCCCN2CCN(c3cc4c(cc3F)C(=O)N(C3CCC(=O)NC3=O)C4=O)CC2)cccc1-c1ccc(N2CCc3cccc(C(=O)Nc4nc5ccccc5s4)c3C2)nc1C(=O)O (stereo not shown) [Compound 115] | C (Ymin ≥ 70%) | B (50% ≤ Ymin < 70%)
Cc1c(OCCCCCCCN2CCN(c3cc4c(cc3F)C(=O)N(C3CCC(=O)NC3=O)C4=O)CC2)cccc1-c1ccc(N2CCc3cccc(C(=O)Nc4nc5ccccc5s4)c3C2)nc1C(=O)O (stereo not shown) [Compound 104, 6-(8-(benzo[d]thiazol-2-ylcarbamoyl)-3,4-dihydroisoquinolin-2(1H)-yl)-3-(3-((7-(4-(2-(2,6-dioxopiperidin-3-yl)-6-fluoro-1,3-dioxoisoindolin-5-yl)piperazin-1-yl)heptyl)oxy)-2-methylphenyl)picolinic acid] | B (50% ≤ Ymin < 70%) | B (50% ≤ Ymin < 70%)
Cc1c(OCCC[C@@H]2CCN(CC(=O)N3CCN(c4cc5c(cc4F)C(=O)N(C4CCC(=O)NC4=O)C5=O)CC3)CC2(F)F)cccc1-c1ccc(N2CCc3cccc(C(=O)Nc4nc5ccccc5s4)c3C2)nc1C(=O)O (stereo partly drawn) [Compound 120a, 6-(8-(benzo[d]thiazol-2-ylcarbamoyl)-3,4-dihydroisoquinolin-2(1H)-yl)-3-(3-(3-((4R)-1-(2-(4-(2-(2,6-dioxopiperidin-3-yl)-6-fluoro-1,3-dioxoisoindolin-5-yl)piperazin-1-yl)-2-oxoethyl)-3,3-difluoropiperidin-4-yl)propoxy)-2-methylphenyl)picolinic acid] |  | B (50% ≤ Ymin < 70%)
Cc1c(OCCC2CCN(CC(=O)N3CCN(c4cc5c(cc4F)C(=O)N(C4CCC(=O)NC4=O)C5=O)CC3)CC2)cccc1-c1ccc(N2CCc3cccc(C(=O)Nc4nc5ccccc5s4)c3C2)nc1C(=O)O (stereo not shown) [Compound 106, 6-[8-(1,3-Benzothiazol-2-ylcarbamoyl)-3,4-dihydro-1H-isoquinolin-2-yl]-3-[3-[2-[1-[2-[4-[2-(2,6-dioxo-3-piperidyl)-6-fluoro-1,3-dioxo-isoindolin-5-yl]piperazin-1-yl]-2-oxo-ethyl]-4-piperidyl]ethoxy]-2-methyl-phenyl]pyridine-2-carboxylic acid] | B (50% ≤ Ymin < 70%) | 
Cc1c(OCCC(F)(F)C2CCN(CC(=O)N3CCN(c4cc5c(cc4F)C(=O)N(C4CCC(=O)NC4=O)C5=O)CC3)CC2)cccc1-c1ccc(N2CCc3cccc(C(=O)Nc4nc5ccccc5s4)c3C2)nc1C(=O)O (stereo not shown) [Compound 126, 6-(8-(benzo[d]thiazol-2-ylcarbamoyl)-3,4-dihydroisoquinolin-2(1H)-yl)-3-(3-(3-(1-(2-(4-(2-(2,6-dioxopiperidin-3-yl)-6-fluoro-1,3-dioxoisoindolin-5-yl)piperazin-1-yl)-2-oxoethyl)piperidin-4-yl)-3,3-difluoropropoxy)-2-methylphenyl)picolinic acid] |  | B (50% ≤ Ymin < 70%)
Cc1c(OCCCN2CCN(c3cc4c(cc3F)C(=O)N(C3CCC(=O)NC3=O)C4=O)CC2)cccc1-c1ccc(N2CCc3cccc(C(=O)Nc4nc5ccccc5s4)c3C2)nc1C(=O)O (stereo not shown) [Compound 101] | B (50% ≤ Ymin < 70%) | 
Cc1c(OCCCC2CCN([C@@H](C)C(=O)N3CCN(c4cc5c(cc4F)C(=O)N(C4CCC(=O)NC4=O)C5=O)CC3)CC2)cccc1-c1ccc(N2CCc3cccc(C(=O)Nc4nc5ccccc5s4)c3C2)nc1C(=O)O (stereo partly drawn) [Compound 124a, 6-(8-(benzo[d]thiazol-2-ylcarbamoyl)-3,4-dihydroisoquinolin-2(1H)-yl)-3-(3-(3-(1-((2S)-1-(4-(2-(2,6-dioxopiperidin-3-yl)-6-fluoro-1,3-dioxoisoindolin-5-yl)piperazin-1-yl)-1-oxopropan-2-yl)piperidin-4-yl)propoxy)-2-methylphenyl)picolinic acid] |  | B (50% ≤ Ymin < 70%)
Cc1c(OCCCC2CCN(CCN3CCN(c4cc5c(cc4F)C(=O)N(C4CCC(=O)NC4=O)C5=O)CC3)CC2)cccc1-c1ccc(N2CCc3cccc(C(=O)Nc4nc5ccccc5s4)c3C2)nc1C(=O)O (stereo not shown) [Compound 118, 6-(8-(benzo[d]thiazol-2-ylcarbamoyl)-3,4-dihydroisoquinolin-2(1H)-yl)-3-(3-(3-(1-(2-(4-(2-(2,6-dioxopiperidin-3-yl)-6-fluoro-1,3-dioxoisoindolin-5-yl)piperazin-1-yl)ethyl)piperidin-4-yl)propoxy)-2-methylphenyl)picolinic acid] |  | A (Ymin < 50%)
Cc1c(Oc2ccc(CCCCN3CCN(c4cc5c(cc4F)C(=O)N(C4CCC(=O)NC4=O)C5=O)CC3)cc2)cccc1-c1ccc(N2CCc3cccc(C(=O)Nc4nc5ccccc5s4)c3C2)nc1C(=O)O (stereo not shown) [Compound 117, 6-(8-(benzo[d]thiazol-2-ylcarbamoyl)-3,4-dihydroisoquinolin-2(1H)-yl)-3-(3-(4-(4-(4-(2-(2,6-dioxopiperidin-3-yl)-6-fluoro-1,3-dioxoisoindolin-5-yl)piperazin-1-yl)butyl)phenoxy)-2-methylphenyl)picolinic acid] | B (50% ≤ Ymin < 70%) | B (50% ≤ Ymin < 70%)
Cc1c(OCCCC[C@H]2CCCN(CC(=O)N3CCN(c4cc5c(cc4F)C(=O)N(C4CCC(=O)NC4=O)C5=O)CC3)C2)cccc1-c1ccc(N2CCc3cccc(C(=O)Nc4nc5ccccc5s4)c3C2)nc1C(=O)O (stereo partly drawn) [Compound 135b, 6-[8-(1,3-benzothiazol-2-ylcarbamoyl)-3,4-dihydro-1H-isoquinolin-2-yl]-3-[3-[4-[(3S)-1-[2-[4-[2-(2,6-dioxo-3-piperidyl)-6-fluoro-1,3-dioxo-isoindolin-5-yl]piperazin-1-yl]-2-oxo-ethyl]-3-piperidyl]butoxy]-2-methyl-phenyl]pyridine-2-carboxylic acid] |  | B (50% ≤ Ymin < 70%)
Cc1c(OCC2CC3(CCN(CC(=O)N4CCN(c5cc6c(cc5F)C(=O)N(C5CCC(=O)NC5=O)C6=O)CC4)CC3)C2)cccc1-c1ccc(N2CCc3cccc(C(=O)Nc4nc5ccccc5s4)c3C2)nc1C(=O)O (stereo not shown) [Compound 113, 6-[8-(1,3-benzothiazol-2-ylcarbamoyl)-3,4-dihydro-1H-isoquinolin-2-yl]-3-[3-[[7-[2-[4-[2-(2,6-dioxo-3-piperidyl)-6-fluoro-1,3-dioxo-isoindolin-5-yl]piperazin-1-yl]-2-oxo-ethyl]-7-azaspiro[3.5]nonan-2-yl]methoxy]-2-methyl-phenyl]pyridine-2-carboxylic acid] | B (50% ≤ Ymin < 70%) | B (50% ≤ Ymin < 70%)
Cc1c(OCCC[C@H]2CCN(CC(=O)N3CCN(c4cc5c(cc4F)C(=O)N(C4CCC(=O)NC4=O)C5=O)CC3)CC2(F)F)cccc1-c1ccc(N2CCc3cccc(C(=O)Nc4nc5ccccc5s4)c3C2)nc1C(=O)O (stereo partly shown) [Compound 120b] |  | C (Ymin ≥ 70%)
